Several values for one entry are separate records, joined by “and”; a condition that tells them apart may be missing. Equal values may be shown once.
Assays:
[1] = test system: Plasmodium falciparum blood stage parasites; experiment: Dose-response curves (parasitemia by Hoechst flow cytometry); type: cell-based
Experimental: Synchronous ring-stage or late-stage iRBC at <0.5% parasitemia were brought up to 4% hematocrit in complete culture medium and transferred to a 24-well tissue culture plate in 1 mL aliquots. […] 25 μL were removed from each well at 0, 24, 48, and 72 hours, stained with 100 μL 2 μg/mL Hoechst 33342 for 10 minutes at 37°C, and analyzed by flow cytometry as described above. IC50 values were determined according to parasitemia at 24 hours post-treatment. Parasitemia was defined as the percent of Hoechst-positive RBCs as measured by flow cytometry.

[2] = test system: Plasmodium falciparum iRBC; experiment: Parasite viability assay (parasitemia by flow cytometry, Giemsa blood smears); type: cell-based; conditions: for morphology of treated iRBC by blood smear: STAD-2 1 μM, H89 30 μM, light microscopy at 48 hours post-treatment, versus DMSO
Experimental: 25 μL were removed from each well every 24 hours post-treatment, and samples were stained with Hoechst 33342 and analyzed by flow cytometry. Blood smears were made every 24 hours, fixed with methanol, and stained with Giemsa for analysis by light microscopy. Images were acquired using a Nikon Eclipse E400 microscope fitted with a Nikon Digital Sight DS-5M-L1 camera (Nikon Instruments Inc.).

[3] = test system: Plasmodium falciparum infected red blood cells (iRBC); experiment: STAD-2 permeability: uptake of FITC-conjugated peptides by flow cytometry; type: cell-based
Experimental: (§2) Synchronous ring-stage or late-stage infected red blood cells (iRBC) and uninfected red blood cells (uRBC) were brought up to 4% hematocrit in complete culture medium. FITC-conjugated peptides were added to a final concentration of 1 μM, and cultures were incubated for 6 hours at 37°C under standard gas conditions. Following incubation, 25 μL cell mixture was removed and treated with 100 μL 2 μg/mL Hoechst 33342 for 10 minutes at 37°C. Cells were subsequently washed once in 1 mL 1X PBS, resuspended in 300 μL 1X PBS, and analyzed for Hoechst and FITC staining on a Beckman Coulter CyAn flow cytometer. 500,000 events were collected at a rate of 15,000–20,000 events per second. Data was analyzed using FlowJo X single cell analysis software (FlowJo LLC).

[4] = test system: late-stage iRBC; experiment: Hemolysis (oxyhemoglobin absorbance at 415 nm); type: cell-based, Plasmodium falciparum; conditions: late-stage iRBC diluted in uRBC, 0 to 8% parasitemia, 1 μM, 6 hours, versus DMSO, n = 4
Experimental: Synchronous late-stage iRBC were mixed with uRBC in order to achieve a series of samples with stepwise decreasing parasitemia. […] The plate was incubated at 37°C under standard gas conditions for 6 hours. Following incubation, all samples were transferred to Eppendorf tubes and centrifuged at 700 rcf for 5 minutes to pellet cells. 100 μL of supernatant was removed from each tube and transferred to a 96-well, flat-bottom tissue culture plate. Oxyhemoglobin absorbance was measured at 415 nm using a SpectraMax Plus microplate spectrophotometer with SoftMax Pro 5.4 software (Molecular Devices, LLC).

[5] = test system: PfPKA-R; experiment: Immunofluorescence assay, colocalization with PKA regulatory subunit; type: cell-based, Plasmodium falciparum; conditions: late-stage iRBC, 1 μM FITC-conjugated peptide, 2 hours, anti-PfPKA R antibody
Experimental: (§1) A culture of primarily late-stage iRBC was incubated with STAD-2 or DMSO as described above. Following incubation, 50 μL of cell mixture was removed and washed twice with 1 mL 1X PBS. Cells were then resuspended in 200 μL 4% paraformaldehyde/0.0075% glutaraldehyde and transferred to a CC2 glass chamber slide (Nalge Nunc International). Cells were fixed for 30 minutes at room temperature and gently washed twice with 300 μL 1X PBS. Fixed cells were subsequently permeabilized with 0.1% Triton X-100/PBS for 10 minutes and washed. Cells were then treated with […] sodium borohydride/PBS for 10 minutes to reduce any free aldehyde groups, washed with 1X PBS, and blocked for 1 hour at room temperature with 3% BSA/PBS. Following blocking, cells were brought up in 200 μL primary antibody and left shaking at 4°C overnight. The following morning, cells were washed three times, for 10 minutes each, to remove excess primary antibody and brought up in 200 μL secondary antibody for 1 hour at room temperature. After washing, cells were counterstained with 200 μL 0.5 μg/mL Hoechst 33342 for 3 minutes at room temperature and washed a final time before removing slide chambers, mounting a coverslip with Fluoro-Gel, and sealing. Rat anti-PfPKA-R was generously donated by Gordon Langsley (Institut Cochin) and diluted 1:300 in 3% BSA/PBS. Goat anti-HsPKA-RII (Abcam) was diluted to 10 μg/mL in 3% BSA/PBS. […]

[6] = test system: HsPKA-RII; experiment: as above; type: cell-based, H. sapiens; conditions: late-stage iRBC, 1 μM FITC-conjugated peptide, 2 hours, anti-HsPKA RII antibody
Experimental: as §1

[7] = test system: late-stage iRBC
Experimental: Late-stage cultures were brought up to 4% hematocrit in complete culture medium and transferred to a 48-well tissue culture plate at 250 μL per well. Plates were spun at 330 rcf for 5 minutes, the medium was aspirated, and cultures were resuspended in either 250 μL complete culture medium or 200 μM furosemide in complete culture medium for 10 minutes at 37°C. Plates were again spun at 330 rcf, aspirated, and resuspended in 250 μL 1 μM STAD-2, 5% D-Sorbitol, 200 μM furosemide, 130 mM glycerol, 6 μM AgNO3, or a combination of the aforementioned for 10 minutes or 2 hours. Following incubation, 25 μL were removed, stained, and analyzed by flow cytometry as described above. Ten-minute time points served as controls for 5% D-Sorbitol and furosemide activities while effects on STAD-2 uptake were determined using 2-hour time points.

[8] = biological target: T1, cytoadherence linked asexual protein 3.1, or CLAG3 (Plasmodium falciparum, UniProt O77310); experiment: Immunoprecipitation/mass spectrometry with biotin-conjugated peptide; type: binding; conditions: 3D7 parasite supernatant, 16 hours at 4°C, streptavidin beads, MS-MS (S2 Table)
T1 construct: 4 X 10^8 3D7 parasites were lysed with cold 0.04% saponin in PBS; endogenous in cells; host or cells: P. falciparum 3D7 parasites (parasite supernatant of lysate)
Experimental: 4 X 10^8 3D7 parasites were lysed with cold 0.04% saponin in PBS for 10 minutes. The supernatant was, subsequently, separated from the pellet by centrifugation at 4000 rcf for 10 minutes at 4°C. This supernatant consisted of the RBC cytoplasm and parasite exported proteins (termed host supernatant). The pellet consisted of parasite cells; these were further lysed with […]. The soluble fraction (termed parasite supernatant) of the parasite cells was separated from the insoluble fraction by centrifuging the parasite lysate at 4000 rcf for 10 minutes at 4°C. The host supernatant and the parasite supernatant were each incubated with biotin-conjugated STAD-2 or STAD-2 scramble for 16 hours at 4°C. Peptide-protein complexes were precipitated using streptavidin-coupled Dynabeads (Life Technologies). Dynabeads were subsequently washed four times with 1X PBS, and the precipitated peptide-protein complexes were solubilized in SDS-PAGE sample buffer. Proteins were, then, fractionated on 10% SDS-PAGE, excised, and identified by MS-MS (Proteomics and Mass Spectrometry Core Facility, University of Georgia).
Sequences identified by MS-MS were searched against the NCBI non-redundant protein databases for Plasmodium falciparum (NCBI taxonomy #5833) and human (#9606)/Plasmodium (#5820) and analyzed by Mascot. Results from both database searches were cross-referenced and compiled. […]

[9] = test system: uninfected red blood cells (uRBC); conditions: 1 μM FITC-conjugated peptide, 6 hours, 37°C, 4% hematocrit, Hoechst/FITC flow cytometry
Experimental: as §2

T1 sequence (O77310 25-1417): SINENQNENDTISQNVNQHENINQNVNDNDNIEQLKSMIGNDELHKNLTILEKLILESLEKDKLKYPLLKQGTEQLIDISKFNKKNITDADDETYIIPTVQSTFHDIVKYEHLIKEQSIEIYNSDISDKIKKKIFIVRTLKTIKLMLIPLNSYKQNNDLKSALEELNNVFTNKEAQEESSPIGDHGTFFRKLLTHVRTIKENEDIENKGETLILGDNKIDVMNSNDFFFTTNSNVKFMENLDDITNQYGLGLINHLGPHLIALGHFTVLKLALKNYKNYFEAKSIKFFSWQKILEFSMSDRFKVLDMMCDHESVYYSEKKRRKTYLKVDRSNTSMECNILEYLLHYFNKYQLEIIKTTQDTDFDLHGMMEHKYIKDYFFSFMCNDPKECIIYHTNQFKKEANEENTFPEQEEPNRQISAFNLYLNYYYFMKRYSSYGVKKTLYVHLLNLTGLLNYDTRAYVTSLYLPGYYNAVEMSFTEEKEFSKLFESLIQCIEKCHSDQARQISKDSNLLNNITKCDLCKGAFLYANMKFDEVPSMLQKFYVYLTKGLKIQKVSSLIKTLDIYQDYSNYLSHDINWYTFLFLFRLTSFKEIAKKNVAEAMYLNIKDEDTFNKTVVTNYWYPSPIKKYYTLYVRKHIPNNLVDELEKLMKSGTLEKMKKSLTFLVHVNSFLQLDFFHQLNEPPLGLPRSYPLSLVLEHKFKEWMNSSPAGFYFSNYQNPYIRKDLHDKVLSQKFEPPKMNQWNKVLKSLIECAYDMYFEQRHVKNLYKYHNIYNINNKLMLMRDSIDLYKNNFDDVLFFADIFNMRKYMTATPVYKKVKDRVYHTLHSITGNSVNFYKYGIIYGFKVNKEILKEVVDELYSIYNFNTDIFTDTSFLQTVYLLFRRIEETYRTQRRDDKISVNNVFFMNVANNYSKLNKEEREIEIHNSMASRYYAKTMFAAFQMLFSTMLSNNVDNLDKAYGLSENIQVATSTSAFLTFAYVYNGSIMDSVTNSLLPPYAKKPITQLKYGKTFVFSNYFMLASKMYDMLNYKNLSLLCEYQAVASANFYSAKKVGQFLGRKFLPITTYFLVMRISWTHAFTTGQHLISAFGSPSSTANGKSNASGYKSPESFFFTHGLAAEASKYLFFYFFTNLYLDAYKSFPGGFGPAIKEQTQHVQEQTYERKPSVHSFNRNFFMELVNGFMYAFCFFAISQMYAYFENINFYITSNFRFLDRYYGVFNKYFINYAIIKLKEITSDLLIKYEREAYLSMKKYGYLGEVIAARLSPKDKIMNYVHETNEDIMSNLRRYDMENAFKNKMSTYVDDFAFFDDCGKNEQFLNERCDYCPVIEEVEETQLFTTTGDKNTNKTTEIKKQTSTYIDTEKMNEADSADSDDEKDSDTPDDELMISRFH

O=S(=O)(NCCNC/C=C/c1ccc(Br)cc1)c1cccc2cnccc12 [H89] was tested, and the IC50 ([1]; late-stage CS2 parasites, serial dilutions 100-0.78 μM, 24 hours, Hoechst flow cytometry, n = 2 (S5 Fig), read-out: H89 in vitro IC50) was 30 µM and ~30 µM and the “morphology of treated iRBC by blood smear” value ([2]; late-stage iRBC) was “clear morphological changes including the notable absence of a digestive vacuole”.

With CC(C)C[C@H](NC(=O)[C@H](C)NC(=O)[C@]1(C)CCCC=CCCC[C@](C)(NC(=O)[C@H](CO)NC(=O)[C@@H](NC(=O)[C@H](CC(C)C)NC(=O)[C@H](Cc2ccccc2)NC(=O)[C@H](CCCCN)NC(=O)[C@H](C)NC(=O)[C@H](CC(C)C)NC(=O)[C@H](CCCCN)NC(=O)[C@H](CCCCN)NC(=O)CCNC(=S)Nc2ccc3c(c2)C(=O)OC32c3ccc(O)cc3Oc3cc(O)ccc32)C(C)C)C(=O)N[C@@H](C)C(=O)N[C@@H](CC(C)C)C(=O)N[C@@H](CCCCN)C(=O)N1)C(=O)N[C@@H](CCCCN)C(N)=O [STAD-2] the “uptake by synchronous ring-stage and late-stage iRBC” value ([3]; 1 μM FITC-conjugated peptide, 6 hours, flow cytometry, 2way ANOVA p<0.001, n = 3-6) was “significantly increased uptake”, the “permeability in iRBC” value ([3]; CS2 iRBC, 1 μM FITC-conjugated peptide, 6 hours, 37°C, 4% hematocrit, Hoechst/FITC flow cytometry) was “significant permeability” and the “permeability to iRBC among stapled peptides (median fluorescence intensity)” value ([3]; iRBC, 1 μM stapled FITC-conjugated peptides, 6 hours, flow cytometry, n = 2-6 (Fig 7)) was “clearly permeable”. The “permeability across parasite strains” value ([3]; late-stage CS2, Dd2, 3D7, Hb3 iRBC, 1 μM FITC-conjugated peptide, 2 hours, flow cytometry, n = 2 (S1 Fig)) was “comparable levels of permeability”, the “time to near-maximum levels of uptake” value ([3]; late-stage iRBC, 1 μM FITC-conjugated peptide for 1, 2, 3 or 6 hours, flow cytometry, n = 3 (S2 Fig)) was ≤ 3 h and the “effect on parasitemia relative to DMSO-treated controls, dose-response” value ([1]; ring- and late-stage iRBC, 0, 0.5, 1, 2, 5 μM, 24 hours post-treatment, n = 3) was “concentration-dependent decrease in parasitemia”. The “viability of P. falciparum strains” value ([2]; late-stage CS2, 3D7, Dd2, Hb3, 1 μM FITC-conjugated peptide, parasitemia at 24, 48, 72 hours, n = 3 (S3 Fig)) was “reduced viability in CS2, Dd2, and Hb3 strains”, the “parasitemia 6 hours post-treatment” value ([2]; late-stage iRBC, 1 μM FITC-conjugated peptide, 6 hours, flow cytometry, n = 7 (S4 Fig)) was “Reduction in parasitemia was evident” and the “morphology of treated iRBC by blood smear” value ([2]; late-stage iRBC) was “did not differ morphologically from DMSO controls”. For the same compound, the “parasitemia relative to DMSO controls over 72 hours” value ([2]; synchronous ring- and late-stage iRBC, 1 μM, flow cytometry every 24 hours for 72 hours, significant by 48 hours (p<0.001), n = 3) was “significantly decreased parasitemias”, the “iRBC lysis (oxyhemoglobin A415 in medium)” value [4] was “significantly greater than controls” and the “colocalization with PfPKA-R” value [5] was “did not definitively colocalize”. The “colocalization with HsPKA-RII” value [6] was “did not definitively colocalize”, the “STAD-2 uptake, co-incubation with AgNO3” value ([7]; 1 μM STAD-2 + 6 μM AgNO3 (AQP1 inhibitor), 2 hours, flow cytometry, n = 2) was “no apparent change in STAD-2 uptake” and the “STAD-2 uptake, co-treatment with furosemide alone” value ([7]; 1 μM STAD-2 + 200 μM furosemide (PSAC inhibitor), 2 hours, pre-treatment with medium, flow cytometry, n = 3) was “no discernible effect on STAD-2 uptake”. The “STAD-2 uptake, co-incubation with glycerol” value ([7]; 1 μM STAD-2 + 130 mM glycerol (AQP3 solute), 2 hours, flow cytometry, n = 2) was “no apparent change in STAD-2 uptake”, the “STAD-2 uptake, co-incubation with D-Sorbitol” value ([7]; 1 μM STAD-2 + 5% D-Sorbitol (PSAC solute), 2 hours, flow cytometry, n = 2) was “slight reduction of STAD-2 uptake” and the “STAD-2 uptake, furosemide pre-incubation then co-treatment” value ([7]; 200 μM furosemide 10 minutes pre-incubation, then 1 μM STAD-2 + 200 μM furosemide 2 hours, p = 0.0557, n = 3) was “consistent but statistically insignificant decrease”. The “association with CLAG3 by IP/MS” value [8] was “showed association” and the “permeability in uRBC” value [9] was “only a nominal amount”.

Source: PMC4444124, “The Stapled AKAP Disruptor Peptide STAD-2 Displays Antimalarial Activity through a PKA-Independent Mechanism” (PLoS ONE, 2015)
